From US11839613B2, “Pyrimidine derivatives as PGE2 receptor modulators” (IDORSIA PHARMACEUTICALS LTD, priority 2017, dated 2023)

What was measured:
EP4 = EP4 (Homo sapiens (Human), UniProt P35408); assay: hEP4 cAMP assay (BT549 breast cancer cells, HTRF cAMP); assay type: cell-based; settings: antagonistic activity, PGE2 6 nM
Excerpt: (§1) Human tumor cell lines expressing endogenously either EP4 or EP2 are used and cAMP accumulation in cells upon PGE2 stimulation is monitored. SF295 glioblastoma cells express high endogenous EP2 and no EP4, whereas BT549 breast cancer cells, express high endogenous EP4 levels and very low EP2 levels.
(§2) As a detection method for cAMP the HTRF (homogeneous time resolved fluorescence) Cisbio kit (HTRF cAMP dynamic 2 kit 20'000 tests Cisbio Cat. #62AM4PEC) was used, which is based on a competitive immunoassay using a Cryptate-labeled anti-cAMP antibody and d2-labeled cAMP. Native cAMP produced by cells or unlabeled cAMP (for the standard curve) compete with exogenously added d2-labeled cAMP (acceptor) for binding to monoclonal anti-cAMP-Eu3+Cryptate (donor). A FRET signal (Fluorescence Resonance Energy Transfer) is obtained only if the labeled anti-cAMP antibody binds the d2 labelled cAMP, thus the specific signal (i.e. energy transfer) is inversely proportional to the concentration of cAMP in the standard or sample.
(§3) Cells are counted washed and resuspended in assay buffer (AB; HBSS, 20 mM HEPES, 0.2% BSA; 2 mM IBMX).
Plate is pre-incubated 45 minutes at RT. Subsequently, 2.5 microliters of PGE2 (final conc. 6 nM) are transferred into the assay plate. Plate is incubated 30 minutes at RT.

EP2 = EP2 (Homo sapiens (Human), UniProt P43116); assay: hEP2 cAMP assay (SF295 glioblastoma cells, HTRF cAMP); assay type: cell-based; settings: antagonistic activity
Excerpt: as §1, §2, §3
Plate is pre-incubated 45 minutes at RT. […] Plate is incubated 30 minutes at RT.

PTGER4 (EP4) = PTGER4 (EP4) (Homo sapiens (Human), UniProt P35408); assay: cell-based
Excerpt: The system is based on the Enzyme Fragment Complementation Technology. Two complementing fragments of the b-galactosidase enzyme are expressed within stably transfected cells. The larger portion of b-gal, termed EA for Enzyme Acceptor, is fused to the C-terminus of b-arrestin 2. The smaller fragment, termed ProLink™ tag, is fused to PTGER2 (EP2) or PTRGER4 (EP4) at the C-terminus. Upon activation, b-arrestin is recruited which forces the interaction of ProLink and EA, allowing complementation of the two fragments of b-gal and the formation of a functional enzyme which is capable of hydrolysing the substrate and generating a chemiluminescent signal.
Plate is incubated at 37° C., 5% CO2 for 24 hours.
Stock solutions of test compounds are made at a concentration of 10 mM in DMSO, and serially diluted in DMSO to concentrations required for inhibition dose response curves (tested concentration range 10 μM-2 nM or 1 μM-0.2 nM).
Five microliters of diluted compounds are transferred into the assay plate. Plate is pre-incubated 15 minutes at 37° C. Then five microliters of PGE2 (final conc. 20 nM) are transferred into the assay plate. Plate is incubated 120 minutes at 37° C.
Twelve I of reagent are transferred to the assay plate and incubate for 1 hour at RT in the dark. Luminescence counts are read on a BMG Fluostar Optima reader according to manufacturer's instructions.
For each compound concentration calculate of the percentage of activity compared to DMSO control value as average ±STDEV. (each concentration is measured in duplicate)

PTGER2 (EP2) = PTGER2 (EP2) (Homo sapiens (Human), UniProt P43116); assay: hEP2 b-arrestin assay (PathHunter HEK 293 PTGER2 b-arrestin cells); assay type: cell-based; settings: antagonistic activity, beta-arrestin assay; read-out: hEP2 b-arr IC50
Procedure: Plate is pre-incubated 15 minutes at 37° C. Then five microliters of PGE2 (final conc. 5 μM) are transferred into the assay plate. Plate is incubated 120 minutes at 37° C.
(each concentration is measured in duplicate)

Sequence of PTGER4 (EP4) (P35408 whole entry): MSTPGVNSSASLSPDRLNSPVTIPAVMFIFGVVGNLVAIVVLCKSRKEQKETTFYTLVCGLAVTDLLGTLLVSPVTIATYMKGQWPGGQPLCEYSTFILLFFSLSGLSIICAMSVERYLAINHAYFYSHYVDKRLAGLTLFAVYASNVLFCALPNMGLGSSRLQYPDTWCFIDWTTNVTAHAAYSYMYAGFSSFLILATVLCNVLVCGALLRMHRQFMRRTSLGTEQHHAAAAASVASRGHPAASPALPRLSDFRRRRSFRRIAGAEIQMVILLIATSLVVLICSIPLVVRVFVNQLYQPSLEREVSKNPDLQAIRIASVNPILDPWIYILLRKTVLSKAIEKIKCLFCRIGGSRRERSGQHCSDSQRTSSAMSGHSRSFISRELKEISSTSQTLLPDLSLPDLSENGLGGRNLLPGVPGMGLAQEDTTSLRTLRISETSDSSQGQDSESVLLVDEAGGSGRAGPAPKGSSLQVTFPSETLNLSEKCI
Sequence of EP4 (P35408 whole entry): as above
Sequence of PTGER2 (EP2) (P43116 whole entry): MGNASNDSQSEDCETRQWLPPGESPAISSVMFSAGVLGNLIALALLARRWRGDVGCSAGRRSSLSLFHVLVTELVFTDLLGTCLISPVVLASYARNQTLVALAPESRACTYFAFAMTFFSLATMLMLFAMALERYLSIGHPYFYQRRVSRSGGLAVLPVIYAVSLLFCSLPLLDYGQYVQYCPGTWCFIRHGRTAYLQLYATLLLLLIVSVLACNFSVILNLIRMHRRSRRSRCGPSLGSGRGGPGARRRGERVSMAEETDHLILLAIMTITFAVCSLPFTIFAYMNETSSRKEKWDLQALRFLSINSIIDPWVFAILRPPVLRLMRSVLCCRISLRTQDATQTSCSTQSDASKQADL
Sequence of EP2 (P43116 whole entry): as above

CCOc1cc(-c2cc(NCCc3c(OC)cc4ccccc4c3F)ncn2)sc1C(=O)O [Ex 3, 3-Ethoxy-5-{6-[2-(1-fluoro-3-methoxy-naphthalen-2-yl)-ethylamino]-pyrimidin-4-yl}-thiophene-2-carboxylic acid]
IC50 (EP4): 2 nM
IC50 (EP2): 26 nM
IC50 (PTGER4 (EP4)): 1 nM

CCOc1cc(-c2cc(NCCc3ccc4ccccc4c3F)ncn2)sc1C(=O)O [Ex 11, 3-Ethoxy-5-{6-[2-(1-fluoro-naphthalen-2-yl)-ethylamino]-pyrimidin-4-yl}-thiophene-2-carboxylic acid]
IC50 (EP4): 7 nM
IC50 (EP2): 277 nM
IC50 (PTGER4 (EP4)): 13 nM

CCOc1cc(-c2cc(NCCc3cc4c(cc3OC)OCCCO4)ncn2)sc1C(=O)O [Ex 21, 3-Ethoxy-5-{6-[2-(8-methoxy-3,4-dihydro-2H-benzo[b][1,4]dioxepin-7-yl)-ethylamino]-pyrimidin-4-yl}-thiophene-2-carboxylic acid]
IC50 (EP4): 12 nM
IC50 (EP2): 912 nM
IC50 (PTGER4 (EP4)): 58 nM

CCOc1cc(-c2cc(NCCc3ccc4ccccc4c3)ncn2)sc1C(=O)O [Ex 36, 3-Ethoxy-5-[6-(2-naphthalen-2-yl-ethylamino)-pyrimidin-4-yl]-thiophene-2-carboxylic acid]
IC50 (EP4): 18 nM
IC50 (EP2): 557 nM
IC50 (PTGER4 (EP4)): 20 nM

CCOc1cc(-c2cc(NCCc3ccc4c(c3)CCC4)ncn2)sc1C(=O)O [Ex 44, 3-Ethoxy-5-[6-(2-indan-5-yl-ethylamino)-pyrimidin-4-yl]-thiophene-2-carboxylic acid]
IC50 (EP4): 21 nM
IC50 (EP2): 283 nM
IC50 (PTGER4 (EP4)): 24 nM

CCOc1cc(-c2cc(NCCc3ccc4c(c3)OCCC4)ncn2)sc1C(=O)O [Ex 58, 5-[6-(2-Chroman-7-yl-ethylamino)-pyrimidin-4-yl]-3-ethoxy-thiophene-2-carboxylic acid]
IC50 (EP4): 30 nM
IC50 (EP2): 9390 nM
IC50 (PTGER4 (EP4)): 13 nM

CCOc1cc(-c2cc(NCCc3cc4c(cc3OC)CCCC4)ncn2)sc1C(=O)O [Ex 60, 3-Ethoxy-5-{6-[2-(3-methoxy-5,6,7,8-tetrahydro-naphthalen-2-yl)-ethylamino]-pyrimidin-4-yl}-thiophene-2-carboxylic acid]
IC50 (EP4): 31 nM
IC50 (EP2): 320 nM
IC50 (PTGER4 (EP4)): 3 nM

CCOc1cc(-c2cc(NCCc3cc4ccccc4cc3Cl)ncn2)sc1C(=O)O [Ex 62, 5-{6-[2-(3-Chloro-naphthalen-2-yl)-ethylamino]-pyrimidin-4-yl}-3-ethoxy-thiophene-2-carboxylic acid]
IC50 (EP4): 32 nM
IC50 (EP2): 301 nM
IC50 (PTGER4 (EP4)): 16 nM

CCOc1cc(-c2cc(NCCc3ccc4c(ccn4C)c3)ncn2)sc1C(=O)O [Ex 65, 3-Ethoxy-5-{6-[2-(1-methyl-1H-indol-5-yl)-ethylamino]-pyrimidin-4-yl}-thiophene-2-carboxylic acid]
IC50 (EP4): 35 nM
IC50 (EP2): 304 nM
IC50 (PTGER4 (EP4)): 33 nM

CSc1cc2c(cc1CCNc1cc(-c3ccc(C(=O)O)c(OC4CCC4)c3)ncn1)OCCO2 [Ex 70, 2-Cyclobutoxy-4-{6-[2-(7-methylsulfanyl-2,3-dihydro-benzo[1,4]dioxin-6-yl)-ethylamino]-pyrimidin-4-yl}-benzoic acid]
IC50 (EP4): 38 nM
IC50 (EP2): 441 nM
IC50 (PTGER4 (EP4)): 209 nM

CCOc1cc(-c2cc(NCCc3ccc4ccccc4c3N)ncn2)sc1C(=O)O [Ex 71, 5-{6-[2-(1-Amino-naphthalen-2-yl)-ethylamino]-pyrimidin-4-yl}-3-ethoxy-thiophene-2-carboxylic acid]
IC50 (EP4): 39 nM
IC50 (EP2): 301 nM
IC50 (PTGER4 (EP4)): 24 nM

CN1CCCc2cc(CCNc3cc(-c4cc(C(F)(F)F)c(C(=O)O)s4)ncn3)c(F)cc21 [Ex 72, 5-{6-[2-(7-Fluoro-1-methyl-1,2,3,4-tetrahydro-quinolin-6-yl)-ethylamino]-pyrimidin-4-yl}-3-trifluoromethyl-thiophene-2-carboxylic acid]
IC50 (EP4): 39 nM
IC50 (EP2): 892 nM
IC50 (PTGER4 (EP4)): 37 nM

CCOc1cc(-c2cc(NCCc3ccc4ccccc4c3Cl)ncn2)sc1C(=O)O [Ex 90, 5-{6-[2-(1-Chloro-naphthalen-2-yl)-ethylamino]-pyrimidin-4-yl}-3-ethoxy-thiophene-2-carboxylic acid]
IC50 (EP4): 55 nM
IC50 (EP2): 378 nM
IC50 (PTGER4 (EP4)): 26 nM

CCOc1cc(-c2cc(NCCc3cc4ccccc4cc3OC)ncn2)ccc1OCC(=O)O [Ex 122, (2-Ethoxy-4-{6-[2-(3-methoxy-naphthalen-2-yl)-ethylamino]-pyrimidin-4-yl}-phenoxy)-acetic acid]
IC50 (EP4): 95 nM
IC50 (EP2): 324 nM
IC50 (PTGER4 (EP4)): 19 nM

Fc1cc2ncccc2c(F)c1CCNc1cc(-c2ccc3ncccc3c2)ncn1 [Ex 123, [2-(5,7-Difluoro-quinolin-6-yl)-ethyl]-(6-quinolin-6-yl-pyrimidin-4-yl)-amine]
IC50 (EP4): 97 nM
IC50 (EP2): 588 nM
IC50 (PTGER4 (EP4)): 353 nM

CCOc1cc(-c2cc(NCCc3ccc4ccccc4c3C)ncn2)sc1/C=C/C(=O)O [Ex 130]
IC50 (EP4): 106 nM
IC50 (EP2): 423 nM
IC50 (PTGER4 (EP4)): 23 nM

CCOc1cc(-c2cc(NCCc3ccc4c(c3)c(C)cn4C)ncn2)sc1C(=O)O [Ex 133]
IC50 (EP4): 109 nM
IC50 (EP2): 482 nM
IC50 (PTGER4 (EP4)): 42 nM

CCOc1cc(-c2cc(NCCc3ccc4ccccc4c3F)ncn2)ccc1OCC(=O)O [Ex 136]
IC50 (EP4): 120 nM
IC50 (EP2): 677 nM
IC50 (PTGER4 (EP4)): 29 nM

CCOc1cc(-c2cc(NCCc3cc4c(cc3OC)CCCC4)ncn2)ccc1OCC(=O)O [Ex 143]
IC50 (EP4): 128 nM
IC50 (EP2): 787 nM
IC50 (PTGER4 (EP4)): 22 nM

CCOc1cc(-c2cc(NCCc3cc4c(cc3SC)OCCO4)ncn2)ccc1OCC(=O)O [Ex 145]
IC50 (EP4): 134 nM
IC50 (EP2): 519 nM
IC50 (PTGER4 (EP4)): 90 nM

O=C(O)c1ccc(-c2cc(NCCc3ccc4cc[nH]c4c3)ncn2)cc1OC1CCC1 [Ex 278, 2-Cyclobutoxy-4-{6-[2-(1H-indol-6-yl)-ethylamino]-pyrimidin-4-yl}-benzoic acid]
IC50 (EP4): 477 nM
IC50 (PTGER2 (EP2)): 281 nM
IC50 (EP2): 187 nM

CCOc1cc(-c2cc(NCCc3cc4c(cc3OC)OCCO4)ncn2)ccc1C(=O)O [Ex 286]
IC50 (EP4): 515 nM
IC50 (PTGER2 (EP2)): 198 nM
IC50 (EP2): 86 nM

Cc1cc2c(cc1CCNc1cc(-c3ccc(C(=O)O)c(OC4CCC4)c3)ncn1)OC=CO2 [Ex 288]
IC50 (EP4): 523 nM
IC50 (PTGER2 (EP2)): 156 nM
IC50 (EP2): 85 nM

CCOc1cc(-c2cc(NCCc3cc4c(cc3OC)OCO4)ncn2)ccc1C(=O)O [Ex 315, 2-Ethoxy-4-{6-[2-(6-methoxy-benzo[1,3]dioxol-5-yl)-ethylamino]-pyrimidin-4-yl}-benzoic acid]
IC50 (EP4): 703 nM
IC50 (PTGER2 (EP2)): 134 nM
IC50 (EP2): 73 nM

Fc1cc2ncccc2c(F)c1CCNc1cc(-c2ccc3cnccc3c2)ncn1 [Ex 318, [2-(5,7-Difluoro-quinolin-6-yl)-ethyl]-(6-isoquinolin-6-yl-pyrimidin-4-yl)-amine]
IC50 (EP4): 753 nM
IC50 (PTGER2 (EP2)): 408 nM
IC50 (EP2): 247 nM

CCOc1cc(-c2cc(NCCc3cc4c(cc3OC(F)F)OCO4)ncn2)ccc1C(=O)O [Ex 325]
IC50 (EP4): 887 nM
IC50 (PTGER2 (EP2)): 441 nM
IC50 (EP2): 332 nM

CCOc1cc(-c2cc(NCCc3cc4c(cc3C)OCCO4)ncn2)ccc1C(=O)O [Ex 327]
IC50 (EP4): 920 nM
IC50 (PTGER2 (EP2)): 296 nM
IC50 (EP2): 159 nM

Fc1cc2ncccc2c(F)c1CCNc1cc(-c2ccc3[nH]ccc3c2)ncn1 [Ex 330, [2-(5,7-Difluoro-quinolin-6-yl)-ethyl]-[6-(1H-indol-5-yl)-pyrimidin-4-yl]-amine]
IC50 (EP4): 1040 nM
IC50 (PTGER2 (EP2)): 158 nM
IC50 (EP2): 249 nM
